According to US20020086278A1, “CHROMOGENIC MEDIA CONTAINING BLOOD OR HEMIN” (priority 1999, published 2002):
Counter-ions that a name gives are not always drawn. Like-named read-outs stand apart in the source and are kept apart here.

Experiments:
Group B Strep. 12386 = assay: Example 1: growth and colony color on plates surface-spread with chromogen; assay type: cell-based; settings: for Color / Growth: Group B Strep 12386
[1] = system: Klebsiella pneumoniae (klpn); assay: Example 3: colony color on chromogenic TSA II with 5% sheep blood (chromogen in medium); assay type: cell-based; settings: for Colony Color (Summary): chromogenic TSA II with 5% Sheep Blood, 0.1 g/l, 3 strains tested
[2] = system: Group D Strep / Enterococcus; assay: as above; settings: 7 of 7 strains
[3] = system: Aeromonas hydrophilia (aehy); assay: as above; assay type: cell-based; settings: for Colony Color: CO2; for Colony Color (Summary): chromogenic TSA II with 5% Sheep Blood, 0.1 g/l, 3 strains tested
cakr 34135 = assay: as above; assay type: cell-based
H. influenzae 10211 = assay: Example 2: effect of incubation conditions on colony color formation; assay type: cell-based
H. influenzae 35540 = assay: as above; assay type: cell-based
N. sicca 29193 [4] = assay: as above; assay type: cell-based
N. sicca 29193 [5] = assay: Example 1: growth and colony color on plates surface-spread with chromogen; assay type: cell-based
[6] = system: Haemophilus influenzae 10211; assay: as above; assay type: cell-based; settings: Substrate on Choclate II Agar, H. influ. 10211
[7] = system: Haemophilus influenzae 35540; assay: as above; assay type: cell-based; settings: for Color: Substrate on Choclate II Agar, H. influ. 35540
[8] = Solubility of chromogen in DMSO; assay type: physicochemical; settings: 0.08g in 1.0 ml DMSO
Experimental: In this series of experiments, 0.08g of each chromogen indicated below was added to 1.0 ml DMSO and thoroughly mixed.

S. epidermidis 12228 [9] = assay: Example 1: growth and colony color on plates surface-spread with chromogen; assay type: cell-based; settings: for Color: S. epi 12228
S. aureus 25923 = assay: Example 2: effect of incubation conditions on colony color formation; assay type: cell-based, Staphylococcus aureus
S. epidermidis 12228 [10] = assay: as above; assay type: cell-based, Staphylococcus epidermidis
[11] = system: Neisseria meningitidis 13090; assay: Example 1: growth and colony color on plates surface-spread with chromogen; assay type: cell-based
N. meningitidis 13090 = assay type: cell-based; settings: Chocolate II Agar, 0.004 g/plate; 24 h, CO2
[12] = system: Staphylococcus aureus 25923; assay: Example 1: growth and colony color on plates surface-spread with chromogen; assay type: cell-based; settings: S. aureus 25923
[13] = system: bacterial test strains of Example 1; assay: Example 1: inhibitory effect over all test strains; assay type: cell-based; settings: Example 1, all test strains
S. pneumoniae 6303 = assay: Example 2: effect of incubation conditions on colony color formation; assay type: cell-based, Streptococcus pneumoniae; settings: TSA II 5% Sheep Blood, 0.004 g/plate; 24 h, CO2
S. mitis 6249 = assay: as above; assay type: cell-based, Streptococcus mitis; settings: TSA II 5% Sheep Blood, 0.004 g/plate; 24 h, CO2
C. perfringens 13124 = assay type: cell-based, Clostridium perfringens; settings: TSA II 5% Sheep Blood, 0.004 g/plate; 5 d, ANA
[14] = Summary of Table I, Group B Strep. 12386
[15] = Substrate on Choclate II Agar, N. mening. 13090

SMILES: OC[C@H]1O[C@@H](Oc2c[nH]c3ccc(Br)c(Cl)c23)[C@H](O)[C@@H](O)[C@@H]1O [X-Glucoside, 5-Br-4-Cl-3-indolyl-β-D-glucopyranoside]
- Color (Group B Strep. 12386; Choc II): blue
- Substrates Producing Color (Group B Strep. 12386; [14]): X-Glucoside, X-
- Color (Group B Strep. 12386; TSA II 5SB): blue
- Color (Group B Strep. 12386; TSA Plain): blue
- Colony Color (Summary) [1]: +
- Colony Color ([1]; klpn 13883, CO2, 21 h): gb
- Colony Color ([1]; klpn 33495, CO2, 18 h): gb
- Colony Color ([1]; klpn 33606, CO2, 18 h): gb
- Colony Color ([1]; klpn 33606, CO2, 21 h): gb
- Colony Color [2]: blue
- Colony Color ([3]; aehy 7965, 18 h): 0
- Colony Color ([3]; aehy 7965, 21 h): 0
- Colony Color ([3]; aehy 7966, 18 h): 0
- Colony Color ([3]; aehy 49847, 18 h): gb
- Colony Color ([3]; aehy 49847, 21 h): gb
- Colony Color (cakr 34135; CO2, 18 h): 0
- Colony Color (cakr 34135; CO2, 21 h): 0

SMILES: O=P(O)(O)Oc1c[nH]c2cc(Cl)c(Br)cc12 [Mag-Phos, 5-Br-6-Cl-3-indolyl-phosphate, p-touidine salt]
- Colony Color (H. influenzae 10211): purple (m)
- Colony Color (H. influenzae 35540): purple (m)
- Colony Color (N. sicca 29193 [4]): purple (m)
- Color (N. sicca 29193 [5]; Substrate on Choclate II Agar, N. sicca. 29193): purple
- Substrates Producing Color (N. sicca 29193 [5]; Summary of Table I, N. sicca 29193): Mag-phos
- Color [6]: purple
- Color ([6]; listed as Mag-phos): dark purple
- Color [7]: purple
- Color ([7]; listed as Mag-phos): dark purple
- Substrates Producing Color ([7]; Summary of Table I, H. influenzae 35540, 10211): Mag-phos
- Solubility / appearance of solution in DMSO [8]: clear and light orange in color
- Color (Group B Strep. 12386; Choc II): purple
- Substrates Producing Color (Group B Strep. 12386; [14]): Mag-phos
- Substrates Producing Growth Inhibition (Group B Strep. 12386; [14]): Slight inhib. w/ X-
- Color (Group B Strep. 12386; TSA II 5SB): purple (a)
- Growth (Group B Strep. 12386; TSA II 5SB): <
- Color (Group B Strep. 12386; TSA Plain): purple
- Growth (Group B Strep. 12386; TSA Plain): <
- Color (S. epidermidis 12228 [9]; Choc II): purple
- Substrates Producing Color (S. epidermidis 12228 [9]; Summary of Table I, S. epidermidis 12228): Mag-phos
- Color (S. epidermidis 12228 [9]; TSA II 5SB): purple
- Color (S. epidermidis 12228 [9]; TSA Plain): purple
- Colony Color ([1]; klpn 13883, CO2, 21 h): 0
- Colony Color ([1]; klpn 33606, CO2, 21 h): 0
- Colony Color (S. aureus 25923): purple (m)
- Colony Color (S. epidermidis 12228 [10]): purple (m)
- Growth [11]: = NC
- Color [11, 15]: colorless
- Colony Color (N. meningitidis 13090): NC (col
- Color ([12]; Choc II): purple
- Substrates Producing Color ([12]; Summary of Table I): Mag-phos
- Color ([12]; TSA II 5SB): purple
- Color ([12]; TSA Plain): purple
- Colony Color ([3]; aehy 7965, 21 h): gp
- Colony Color ([3]; aehy 7966, 21 h): gp
- Colony Color (Summary) [3]: +
- Colony Color (cakr 34135; CO2, 21 h): lgp
- Inhibitory effect [13]: most inhibitory effect

SMILES: CC(=O)N[C@H]1[C@H](Oc2c[nH]c3ccc(Br)c(Cl)c23)O[C@H](CO)[C@H](O)[C@@H]1O [X-Acglmn, 5-Br-4-Cl-3-indolyl-N-Acetyl-β-D-galactosaminide]
- Colony Color (S. pneumoniae 6303): blue (l)
- Colony Color (Summary) [1]: 0
- Colony Color ([1]; klpn 13883, CO2, 18 h): 0
- Colony Color ([1]; klpn 13883, CO2, 21 h): 0
- Colony Color ([1]; klpn 33495, CO2, 18 h): vlgb
- Colony Color ([1]; klpn 33495, CO2, 24 h): 0
- Colony Color ([1]; klpn 33495, air, 24 h): 0
- Colony Color ([1]; klpn 33606, CO2, 18 h): 0
- Colony Color ([1]; klpn 33606, CO2, 21 h): 0
- Growth [11, 15]: <
- Substrates Producing Growth Inhibition ([11]; Summary of Table I, N. meningitidis 13090): Slight inhib w/ X-
- Colony Color (S. mitis 6249): blue (vl)
- Colony Color (C. perfringens 13124): blue (l)
- Colony Color [2]: dark blue
- Colony Color ([3]; aehy 7965, 18 h): db
- Colony Color ([3]; aehy 7965, 21 h): gb
- Colony Color ([3]; aehy 7966, 18 h): db
- Colony Color ([3]; aehy 7966, 21 h): gb
- Colony Color ([3]; aehy 49847, 18 h): db
- Colony Color ([3]; aehy 49847, 21 h): gb
- Colony Color (Summary) [3]: +
- Colony Color (cakr 34135; CO2, 18 h): 0
- Colony Color (cakr 34135; CO2, 21 h): 0
